Earlier results, collected in patent US7923560B2, “Delivery of immune response modifier compounds” (3M Innovative Properties Company, priority 2003, dated 2011).

Assays:
[1] = delivered systemically, compared to imiquimod
TLR 7 = target: T1, TLR 7 (Homo sapiens, UniProt Q9NYK1)
T1 construct: expressed in transfected cells
T1 sequence (Q9NYK1 27-1049): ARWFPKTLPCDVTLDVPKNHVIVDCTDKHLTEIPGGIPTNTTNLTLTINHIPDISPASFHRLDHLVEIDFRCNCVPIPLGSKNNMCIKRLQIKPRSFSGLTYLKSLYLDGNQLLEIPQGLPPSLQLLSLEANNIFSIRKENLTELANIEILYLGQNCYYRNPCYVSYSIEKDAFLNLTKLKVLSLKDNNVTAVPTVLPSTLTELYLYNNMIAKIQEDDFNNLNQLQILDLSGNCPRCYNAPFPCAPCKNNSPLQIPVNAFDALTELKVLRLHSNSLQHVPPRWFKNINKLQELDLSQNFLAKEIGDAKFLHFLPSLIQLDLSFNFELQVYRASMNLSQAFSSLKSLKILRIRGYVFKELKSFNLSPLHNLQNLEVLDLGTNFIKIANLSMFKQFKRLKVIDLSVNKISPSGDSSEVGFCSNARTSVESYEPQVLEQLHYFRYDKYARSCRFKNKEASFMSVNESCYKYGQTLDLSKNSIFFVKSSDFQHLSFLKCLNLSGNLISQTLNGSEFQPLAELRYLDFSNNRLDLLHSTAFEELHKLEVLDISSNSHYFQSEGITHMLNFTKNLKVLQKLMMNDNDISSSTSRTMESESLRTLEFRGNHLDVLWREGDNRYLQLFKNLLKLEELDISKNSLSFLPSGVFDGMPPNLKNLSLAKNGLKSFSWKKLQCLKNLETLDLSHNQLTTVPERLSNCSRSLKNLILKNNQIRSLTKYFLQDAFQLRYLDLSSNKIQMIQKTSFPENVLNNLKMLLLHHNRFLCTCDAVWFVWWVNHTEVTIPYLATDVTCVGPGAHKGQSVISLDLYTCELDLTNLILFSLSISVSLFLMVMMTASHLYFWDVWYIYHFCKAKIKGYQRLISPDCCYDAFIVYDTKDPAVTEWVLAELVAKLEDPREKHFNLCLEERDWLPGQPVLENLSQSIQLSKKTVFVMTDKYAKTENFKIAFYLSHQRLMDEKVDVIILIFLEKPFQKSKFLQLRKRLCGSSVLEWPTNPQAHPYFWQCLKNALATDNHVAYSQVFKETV

TLR 8 = target: T2, TLR 8 (Homo sapiens, UniProt Q9NR97)
T2 construct: expressed in transfected cells
T2 sequence (Q9NR97 27-1041): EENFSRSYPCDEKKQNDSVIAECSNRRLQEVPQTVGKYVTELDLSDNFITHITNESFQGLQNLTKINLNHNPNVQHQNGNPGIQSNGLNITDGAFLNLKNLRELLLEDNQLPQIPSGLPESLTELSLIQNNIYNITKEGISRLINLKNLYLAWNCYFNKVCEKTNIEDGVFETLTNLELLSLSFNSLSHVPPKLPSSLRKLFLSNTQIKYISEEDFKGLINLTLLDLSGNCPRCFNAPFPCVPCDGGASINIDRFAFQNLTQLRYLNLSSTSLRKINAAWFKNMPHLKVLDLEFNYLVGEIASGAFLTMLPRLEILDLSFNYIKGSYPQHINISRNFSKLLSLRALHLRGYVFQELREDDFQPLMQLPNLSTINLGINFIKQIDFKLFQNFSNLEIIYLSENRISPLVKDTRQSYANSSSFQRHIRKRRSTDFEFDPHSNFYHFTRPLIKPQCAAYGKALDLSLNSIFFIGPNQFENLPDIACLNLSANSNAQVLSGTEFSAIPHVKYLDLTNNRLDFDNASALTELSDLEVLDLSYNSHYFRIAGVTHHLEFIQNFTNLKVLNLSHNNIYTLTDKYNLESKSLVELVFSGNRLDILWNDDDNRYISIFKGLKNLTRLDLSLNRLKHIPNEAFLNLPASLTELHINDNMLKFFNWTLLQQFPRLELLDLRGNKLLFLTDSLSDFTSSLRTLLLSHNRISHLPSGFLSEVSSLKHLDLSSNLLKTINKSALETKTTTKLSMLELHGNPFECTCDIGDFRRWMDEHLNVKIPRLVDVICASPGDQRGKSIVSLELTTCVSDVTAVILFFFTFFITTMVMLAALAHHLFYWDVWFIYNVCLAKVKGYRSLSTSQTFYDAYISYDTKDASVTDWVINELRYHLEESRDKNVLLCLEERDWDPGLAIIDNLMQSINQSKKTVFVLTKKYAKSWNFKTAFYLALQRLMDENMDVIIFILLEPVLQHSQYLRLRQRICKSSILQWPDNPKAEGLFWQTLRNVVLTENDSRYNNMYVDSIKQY

Q: Which results are given for `CC(C)(O)Cn1cnc2c(N)nc3ccccc3c21` [4-amino-α,α-dimethyl-1H-imidazo[4,5-c]quinoline-1-ethanol]?
A: CNS effect [1]: much lower CNS effect; TLR 7 agonist activity (TLR 7): predominantly a TLR 7 agonist; TLR 8 agonist activity (TLR 8): not a substantial TLR 8 agonist

Q: For `CCOCc1nc2c(N)nc3c(c2n1CC(C)(C)O)CCCC3` [4-amino-2-(ethoxymethyl)-α,α-dimethyl-6,7,8,9-tetrahydro-1H-imidazo[4,5-c]quinoline-1-ethanol], which “TLR 7 agonist activity” value (TLR 7) is on record?
A: a TLR 7 and TLR 8 agonist

Q: And the “TLR 8 agonist activity” value (TLR 8)?
A: a TLR 7 and TLR 8 agonist

Q: For `CCOCc1nc2c(N)nc3ccccc3c2n1CC(C)(C)O` [Resiquimod, 4-amino-2-ethoxymethyl-α,α-dimethyl-1H-imidazo[4,5-c]quinoline-1-ethanol], which “TLR 7 agonist activity” value (TLR 7) is on record?
A: combination TLR 7 and TLR 8 agonist

Q: What about the “TLR 8 agonist activity” value (TLR 8) of the same compound?
A: combination TLR 7 and TLR 8 agonist
